Measurements from US6228877A, “Substituted pyrroles” (Hoffmann-La Roche Inc., priority 1998, dated 2001).
pIC50: −log10 of the molar value.

Tested on: epithelial breast carcinoma cell line (MDAMB-435)
Test: effect of compounds on growth of epithelial breast carcinoma cell line MDAMB-435 (MTT, 5 days)
Format: cell-based
Conditions: Homo sapiens, MDA-MB-435, 120 h, MDAMB-435 cells, 5 days post drug addition, 0.1% DMSO
Method: The epithelial breast carcinoma cell line (MDAMB-435) was purchased from ATCC (American Type Cell Culture Collection) and was grown in culture in medium as recommended by ATCC. For analysis of the effect of various compounds on growth of these cells, the cells were plated at a concentration of 1500 cells/well in a 96 well tissue culture plate ("test plate). The day after the cells were plated, the compounds to be analyzed were dissolved in 100% DMSO (dimethyl sulfoxide) to yield at 10 mM stock solution. Each compound was diluted in H2 O to 1 mM and was added to triplicate wells in the first row of a 96 well master plate which contains medium to yield a final concentration of 40 μM. The compounds were then serially diluted in medium in the "master plate". The diluted compound(s) were then transferred to test plates containing cells. A row of vehicle "control cells" received DMSO. The final concentration of DMSO in each well was 0.1%. 5 days post drug addition, the plate was analyzed as follows:
MTT (3-(4-5 methyl thiazole-2-yl)-2,5-diphenyl tetrazolium bromide; thiazolyl blue) was added to each well to yield a final concentration of 1 mg/ml. The plate was then incubated at 37° C. for 21/2-3 hours. The MTT containing medium was then removed and 50 μl of 100% ethanol was added to each well to dissolve the formazan. The absorbences were then read using an automated plate reader (Bio-tek microplate reader).
IC50 's were calculated using the Reed and Munsch equation, see Am. J. Hygiene Vol. 27 pgs. 493-497, 1938.

Row | SMILES | pIC50
1 | CCOc1ccc2c(C3=C(c4cn(C)c5cccc(Br)c45)C(=O)NC3=O)cn(C)c2c1 [Br H H EtO, 3-(4-Bromo-1-methyl-1H-indol-3-yl)-4-(6-ethoxy-1-methyl-1H-indol-3-yl)-pyrrole-2,5-dione] | 6.70
2 | COc1ccc2c(C3=C(c4cn(C)c5cccc(OC)c45)C(=O)NC3=O)cn(C)c2c1 [CH3 O H H CH3 O, 3-(6-Methoxy-1-methyl-1H-indol-3-yl)-4-(4-methoxy-1-methyl-1H-indol-3-yl)-pyrrole-2,5-dione] | 7.15
3 | COc1cccc2c1c(C1=C(c3cn(C)c4cc([N+](=O)[O-])ccc34)C(=O)NC1=O)cn2C [CH3 O H H NO2, 3-(4-Methoxy-1-methyl-1H-indol-3-yl)-4-(1-methyl-6-nitro-1H-indol-3-yl)-pyrrole-2,5-dione] | 6.40
4 | COc1ccc2c(C3=C(c4cn(C)c5cccc(F)c45)C(=O)NC3=O)cn(C)c2c1 [F H H CH3 O, 3-(4-Fluoro-1-methyl-1H-indol-3-yl)-4-(6-methoxy-1-methyl-1H-indol-3-yl)-pyrrole-2,5-dione] | 6.70
5 | CCOc1ccc2c(C3=C(c4cn(C)c5cccc(F)c45)C(=O)NC3=O)cn(C)c2c1 [F H H EtO, 3-(4-Fluoro-1-methyl-1H-indol-3-yl)-4-(6-ethoxy-1-methyl-1H-indol-3-yl)-pyrrole-2,5-dione] | 7.49
6 | Cn1cc(C2=C(c3cn(C)c4cccc(F)c34)C(=O)NC2=O)c2ccc([N+](=O)[O-])cc21 [F H H NO2, 3-(4-Fluoro-1-methyl-1H-indol-3-yl)-4-(1-methyl-6-nitro-1H-indol-3-yl)-pyrrole-2,5-dione] | 7.30
7 | Cc1ccc2c(c1)c(C1=C(c3cn(C)c4cc(C)ccc34)C(=O)NC1=O)cn2C [H CH3 H CH3, 3-(1,6-Dimethyl-1H-indol-3-yl)-4-(1,5-dimethyl-1H-indol-3-yl)-pyrrole-2,5-dione] | 6.40
8 | Cc1ccc2c(c1)c(C1=C(c3cn(C)c4cc([N+](=O)[O-])ccc34)C(=O)NC1=O)cn2C [H CH3 H NO2, 3-(1,5-Dimethyl-1H-indol-3-yl)-4-(1-methyl-6-nitro-1H-indol-3-yl)-pyrrole-2,5-dione] | 6.89
9 | COc1ccc2c(c1)c(C1=C(c3cn(C)c4cc(OC)ccc34)C(=O)NC1=O)cn2C [H CH3 O H CH3 O] | 7.15
10 | COc1ccc2c(c1)c(C1=C(c3cn(C)c4cc(SC)ccc34)C(=O)NC1=O)cn2C [H CH3 O H CH3 S, 3-(5-Methoxy-1-methyl-11H-indol-3-yl)-4-(1-methyl-6-methylsulfanyl-1H-indol-3-yl)-pyrrole-2,5-dione] | 6.70
11 | COc1ccc2c(c1)c(C1=C(c3cn(C)c4cc(C#N)ccc34)C(=O)NC1=O)cn2C [H CH3 O H CN, 3-[4-(5-methoxy-1-methyl-1H-indol-3-yl)-2,5-dioxo-2,5-dihydro-1H-pyrrol-3-yl]-1-methyl-1H-indole-6-carbonitrile] | 7.15
12 | COc1ccc2c(c1)c(C1=C(c3cn(C)c4cc(Cl)ccc34)C(=O)NC1=O)cn2C [H CH3 O H Cl, 3-(6-Chloro-1-methyl-1H-indol-3-yl)-4-(5-methoxy-1-methyl-1H-indol-3-yl)-pyrrole-2,5-dione] | 6.70
13 | CCOc1ccc2c(C3=C(c4cn(C)c5ccc(OC)cc45)C(=O)NC3=O)cn(C)c2c1 [H CH3 O H EtO, 3-(6-Ethoxy-1-methyl-1H-indol-3-yl)-4-(5-methoxy-1-methyl-1H-indol-3-yl)-pyrrole-2,5-dione] | 7.15
14 | Cc1ccc2c(C3=C(c4cn(C)c5ccc(C#N)cc45)C(=O)NC3=O)cn(C)c2c1 [H CN H CH3, 3-[4-(1,6-Dimethyl-1H-indol-3-yl]-2,5-dioxo-2,5-dihydro-1H-pyrrol-3-yl]1-methyl-1H-indole-5-carbonitrile] | 6.40
15 | Cn1cc(C2=C(c3cn(C)c4cc([N+](=O)[O-])ccc34)C(=O)NC2=O)c2cc(C#N)ccc21 [H CN H NO2, 1-Methyl-3-[4-(1-methyl-6-nitro-1H-indol-3-yl)-2,5-dioxo-2,5-dihydro-1H-pyrrol-3-yl]-1H-indole-5-carbonitrile] | 6.00
